In patent publication US20260317344A1, “EGFR INHIBITORS FOR TREATING DISEASE” (BLOSSOMHILL THERAPEUTICS, INC., priority 2023, published 2026):

Experiments:
[1] = molecular target: EGFR (L858R) (Homo sapiens, UniProt P00533, L858R); experiment: HotSpot radiometric kinase assay, inhibition of EGFR L858R mutant; type: biochemical; settings: 33P ATP, room temperature, 120 m
Experimental: (§1) Biochemical Assays for inhibition of wild-type and mutant EGFRs
(§2) Briefly, specific kinase/substrate pairs along with required cofactors were prepared in reaction buffer; 20 mM HEPES pH 7.5, 10 mM […], 1 mM EGTA, 0.02% Brij35, 0.02 mg/ml BSA, 0.1 mM Na3VO4, 2 mM DTT, 1% DMSO. Compounds were delivered into the reaction, followed ~20 minutes later by addition of a mixture of ATP (Sigma, St. Louis MO) and ^33P ATP (Perkin Elmer, Waltham MA) to a final concentration of […]. Reactions were carried out at room temperature for 120 m, followed by spotting of the reactions onto P81 ion exchange filter paper (Whatman Inc., Piscataway, NJ). Unbound phosphate was removed by extensive washing of filters in 0.75% phosphoric acid. […] IC50 values and curve fits were obtained using Prism (GraphPad Software).

[2] = molecular target: EGFR (L858R/T790M) (Homo sapiens, UniProt P00533, L858R/T790M); experiment: HotSpot radiometric kinase assay, inhibition of EGFR L858R/T790M mutant; type: biochemical; settings: 33P ATP, room temperature, 120 m
Experimental: as §1, §2

[3] = molecular target: EGFR (L858R/T790M/C797S) (Homo sapiens, UniProt P00533, C797S/L858R/T790M); experiment: HotSpot radiometric kinase assay, inhibition of EGFR L858R/T790M/C797S mutant; type: biochemical; settings: 33P ATP, room temperature, 120 m
Procedure, shortened: (§3)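 Radiometric filter-binding format: ATP plus 33P-ATP ([…]) was added about 20 min after compound to kinase and substrate in HEPES pH 7.5 buffer with Mg2+, EGTA, Brij35, BSA, vanadate, DTT and 1% DMSO. After 120 min at room temperature, reactions were spotted on P81 paper and washed in phosphoric acid; IC50 values fitted.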

[4] = molecular target: EGFR (D746-750) (Homo sapiens, UniProt P00533, DEL746-750); experiment: HotSpot radiometric kinase assay, inhibition of EGFR 746-750 mutant; type: biochemical; settings: 33P ATP, room temperature, 120 m
Procedure, shortened: as §3

[5] = molecular target: EGFR (D746-750/C797S) (Homo sapiens, UniProt P00533, C797S/DEL746-750); experiment: HotSpot radiometric kinase assay, inhibition of EGFR 746-750/C797S mutant; type: biochemical; settings: 33P ATP, room temperature, 120 m
Procedure, shortened: as §3

[6] = molecular target: EGFR (D770_N771insNPG) (Homo sapiens, UniProt P00533, INS770NPG); experiment: HotSpot radiometric kinase assay, inhibition of EGFR (D770_N771insNPG) mutant; type: biochemical; settings: 33P ATP, room temperature, 120 m
Procedure, shortened: as §3

[7] = molecular target: EGFR WT (Homo sapiens, UniProt P00533); experiment: HotSpot radiometric kinase assay, inhibition of EGFR WT; type: biochemical; settings: 33P ATP, room temperature, 120 m
Experimental: as §1, §2

[8] = molecular target: T1, pEGFR, PC-9 cells (d746-750 EGFR) (Homo sapiens, UniProt P00533, DEL746-750); experiment: Cellular EGFR phosphorylation assay (LANCE Ultra TR-FRET) in PC-9 cells; type: cell-based; settings: 4 hours at 37° C., read-out: PC-9 pEGFR IC50
T1 construct: pEGFR (Tyr1068) TR-FRET
Procedure, shortened: (§4)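 PC-9 and NCI-H1975 cells (50 thousand/well) or A431 cells (30 thousand/well) treated next day for 4 h at 37° C with a 9-dose 3-fold titration; A431 stimulated with 40 ng/mL EGF for the final 10 min. Lysate phospho-EGFR (Tyr1068) read by LANCE Ultra TR-FRET; IC50 derived.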

[9] = molecular target: T2, pEGFR, NCI-H1975 cells (L858R/T790M EGFR) (Homo sapiens, UniProt P00533, L858R/T790M); experiment: Cellular EGFR phosphorylation assay (LANCE Ultra TR-FRET) in NCI-H1975 cells; type: cell-based; settings: 4 hours at 37° C., read-out: H1975 pEGFR IC50
T2 construct: pEGFR (Tyr1068) TR-FRET
Procedure, shortened: as §4

[10] = molecular target: T3, pEGFR, A431 cells (wildtype EGFR) (Homo sapiens, UniProt P00533); experiment: Cellular EGFR phosphorylation assay (LANCE Ultra TR-FRET) in A431 cells; type: cell-based; settings: 4 hours at 37° C., 40 ng/mL EGF for the final 10 minutes, read-out: A431 pEGFR IC50
T3 construct: pEGFR (Tyr1068) TR-FRET
Procedure, shortened: as §4

[11] = tested on: PC-9 cells; experiment: 5-Day CellTiter Glo (CTG) cell proliferation assay, PC-9; type: cell-based; settings: Homo sapiens; PC-9 cells (d746-750 EGFR), 5-day CTG proliferation, 120 hours; read-out: PC-9 IC50
Procedure, shortened: (§5)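 Proliferation of EGFR-driven NSCLC cells was scored as CellTiter-Glo 2.0 luminescence after a 5-day (120 h) incubation with compounds in 9 doses. IC50 values came from the dose-response curves.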

[12] = tested on: NCI-H1975 cells; experiment: 5-Day CellTiter Glo (CTG) cell proliferation assay, NCI-H1975; type: cell-based; settings: Homo sapiens; NCI-H1975 cells (L858R/T790M EGFR), 5-day CTG proliferation, 120 hours; read-out: H1975 IC50
Procedure, shortened: as §5

[13] = tested on: HCC827 cells; experiment: 5-Day CellTiter Glo (CTG) cell proliferation assay, HCC827; type: cell-based; settings: Homo sapiens; HCC827 cells (d746-750 EGFR), 5-day CTG proliferation, 120 hours; read-out: HCC827 IC50
Procedure, shortened: as §5

[14] = tested on: BaF3 cells with engineered EGFR L858R/T790M/C797S; experiment: 3-Day CellTiter Glo (CTG) cell proliferation assay, BaF3 EGFR L858R/T790M/C797S; type: cell-based; settings: Mus musculus, 3-day CTG proliferation, 72 hours
Procedure, shortened: (§6)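 Luminescent ATP read-out (CellTiter-Glo 2.0) after 72 h compound exposure gives IC50 values. BaF3 transgenic cells, one thousand per well, received a nine-dose series and were kept at 37 °C under 5% CO2.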

[15] = tested on: BaF3 cells with engineered EGFR L858R/C797S; experiment: 3-Day CellTiter Glo (CTG) cell proliferation assay, BaF3 EGFR L858R/C797S; type: cell-based; settings: Mus musculus, 3-day CTG proliferation, 72 hours
Procedure, shortened: as §6

[16] = tested on: BaF3 cells with engineered EGFR d746-750/T790M; experiment: 3-Day CellTiter Glo (CTG) cell proliferation assay, BaF3 EGFR d746-750/T790M; type: cell-based; settings: Mus musculus; BaF3 EGFR d746-750/T790M cells, 3-day CTG proliferation, 72 hours
Procedure, shortened: as §6

Sequence of EGFR (D770_N771insNPG) (P00533 with tags, fused parts or gaps INS770NPG limits assumed): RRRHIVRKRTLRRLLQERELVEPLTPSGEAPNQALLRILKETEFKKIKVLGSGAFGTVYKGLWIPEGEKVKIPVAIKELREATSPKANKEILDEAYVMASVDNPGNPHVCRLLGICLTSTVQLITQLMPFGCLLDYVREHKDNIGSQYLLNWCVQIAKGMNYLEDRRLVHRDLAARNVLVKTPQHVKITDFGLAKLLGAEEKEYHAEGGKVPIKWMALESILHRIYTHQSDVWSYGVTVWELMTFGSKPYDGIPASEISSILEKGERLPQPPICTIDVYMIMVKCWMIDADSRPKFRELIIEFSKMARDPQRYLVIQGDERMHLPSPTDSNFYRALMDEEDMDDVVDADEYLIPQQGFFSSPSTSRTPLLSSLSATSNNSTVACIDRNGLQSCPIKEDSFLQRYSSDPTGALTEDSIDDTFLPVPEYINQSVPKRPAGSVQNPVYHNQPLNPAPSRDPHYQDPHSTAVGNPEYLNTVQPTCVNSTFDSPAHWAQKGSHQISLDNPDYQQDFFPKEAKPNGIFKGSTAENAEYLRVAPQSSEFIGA
T1 sequence (P00533 with tags, fused parts or gaps DEL746-750): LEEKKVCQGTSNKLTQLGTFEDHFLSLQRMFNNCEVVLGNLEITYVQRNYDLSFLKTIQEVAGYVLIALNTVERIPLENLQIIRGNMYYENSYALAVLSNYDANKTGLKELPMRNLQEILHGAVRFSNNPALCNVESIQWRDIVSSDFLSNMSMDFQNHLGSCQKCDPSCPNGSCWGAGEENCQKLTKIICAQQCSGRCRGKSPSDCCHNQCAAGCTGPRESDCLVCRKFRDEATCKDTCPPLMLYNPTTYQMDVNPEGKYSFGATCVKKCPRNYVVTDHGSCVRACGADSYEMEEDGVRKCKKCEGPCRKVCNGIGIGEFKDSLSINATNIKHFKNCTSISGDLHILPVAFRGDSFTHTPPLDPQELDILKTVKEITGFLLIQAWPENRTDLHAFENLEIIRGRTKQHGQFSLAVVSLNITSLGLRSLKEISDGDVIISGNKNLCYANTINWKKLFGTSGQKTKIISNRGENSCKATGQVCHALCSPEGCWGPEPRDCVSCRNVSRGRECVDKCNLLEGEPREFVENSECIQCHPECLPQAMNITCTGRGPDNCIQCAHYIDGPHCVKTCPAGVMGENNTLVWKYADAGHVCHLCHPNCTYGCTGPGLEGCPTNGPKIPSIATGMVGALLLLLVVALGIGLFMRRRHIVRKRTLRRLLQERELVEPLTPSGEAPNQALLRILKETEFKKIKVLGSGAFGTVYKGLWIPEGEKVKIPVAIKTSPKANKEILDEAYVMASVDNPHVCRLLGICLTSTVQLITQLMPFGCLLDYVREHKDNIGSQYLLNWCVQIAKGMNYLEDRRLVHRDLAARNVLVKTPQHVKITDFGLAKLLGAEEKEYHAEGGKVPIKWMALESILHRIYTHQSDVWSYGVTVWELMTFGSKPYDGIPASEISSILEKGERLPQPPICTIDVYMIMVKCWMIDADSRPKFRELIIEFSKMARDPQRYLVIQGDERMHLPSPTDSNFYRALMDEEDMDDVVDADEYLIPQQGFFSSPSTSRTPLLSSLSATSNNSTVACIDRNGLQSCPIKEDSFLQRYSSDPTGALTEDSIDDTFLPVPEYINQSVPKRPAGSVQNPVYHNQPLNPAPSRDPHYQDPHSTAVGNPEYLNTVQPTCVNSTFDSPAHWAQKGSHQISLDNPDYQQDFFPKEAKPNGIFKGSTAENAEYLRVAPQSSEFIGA
Sequence of EGFR (D746-750) (P00533 with tags, fused parts or gaps DEL746-750): as above
Sequence of EGFR (L858R) (P00533 25-1210 L858R): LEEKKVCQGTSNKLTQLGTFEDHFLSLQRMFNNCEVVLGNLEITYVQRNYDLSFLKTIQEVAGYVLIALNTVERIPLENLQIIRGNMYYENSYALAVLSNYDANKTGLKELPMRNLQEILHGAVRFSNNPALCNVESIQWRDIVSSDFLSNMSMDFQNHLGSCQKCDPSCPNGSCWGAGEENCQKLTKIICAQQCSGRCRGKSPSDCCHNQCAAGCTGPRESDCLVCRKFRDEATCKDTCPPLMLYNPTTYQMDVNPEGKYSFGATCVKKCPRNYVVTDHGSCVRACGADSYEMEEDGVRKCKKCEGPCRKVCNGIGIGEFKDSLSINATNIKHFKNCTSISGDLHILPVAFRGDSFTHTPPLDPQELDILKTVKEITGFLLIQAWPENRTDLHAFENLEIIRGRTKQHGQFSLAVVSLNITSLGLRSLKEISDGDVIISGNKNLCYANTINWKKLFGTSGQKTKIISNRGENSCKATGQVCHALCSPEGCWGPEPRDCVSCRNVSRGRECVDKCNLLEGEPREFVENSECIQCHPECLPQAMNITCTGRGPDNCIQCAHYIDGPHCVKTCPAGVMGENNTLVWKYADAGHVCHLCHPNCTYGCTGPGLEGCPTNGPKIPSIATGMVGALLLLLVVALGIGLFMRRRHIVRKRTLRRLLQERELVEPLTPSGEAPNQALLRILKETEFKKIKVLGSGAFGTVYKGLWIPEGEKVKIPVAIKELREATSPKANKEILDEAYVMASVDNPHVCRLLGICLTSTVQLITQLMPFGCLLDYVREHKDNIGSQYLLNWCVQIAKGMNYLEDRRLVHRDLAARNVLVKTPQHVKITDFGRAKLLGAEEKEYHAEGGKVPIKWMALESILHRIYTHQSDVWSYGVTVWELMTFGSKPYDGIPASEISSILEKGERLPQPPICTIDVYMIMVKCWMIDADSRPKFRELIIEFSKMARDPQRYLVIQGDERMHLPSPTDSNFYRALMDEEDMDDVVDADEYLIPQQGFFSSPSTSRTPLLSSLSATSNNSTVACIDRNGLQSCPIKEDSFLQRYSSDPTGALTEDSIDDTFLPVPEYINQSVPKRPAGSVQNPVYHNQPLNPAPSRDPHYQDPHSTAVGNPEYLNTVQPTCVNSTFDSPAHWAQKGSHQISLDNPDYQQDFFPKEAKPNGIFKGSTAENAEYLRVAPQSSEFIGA

| Structure (SMILES) | IC50 [1] [pM] | IC50 [2] [pM] | IC50 [3] [pM] | IC50 [4] [pM] | IC50 [5] [pM] | IC50 [6] [pM] | IC50 [7] [pM] | IC50 [8] [pM] | IC50 [9] [pM] | IC50 [10] [pM] | IC50 [11] [pM] | IC50 [12] [pM] | IC50 [13] [pM] | IC50 [14] [pM] | IC50 [15] [pM] | IC50 [16] [pM] |
| --- | --- | --- | --- | --- | --- | --- | --- | --- | --- | --- | --- | --- | --- | --- | --- | --- |
| CC(C)Oc1nn(CCO)c2c1/C=C/c1n[nH]c3cnc(cc13)-c1cnn(C)c1O[C@@H](C)CN(C)C2 [Ex. 5, 2-[(10S,17E)-8,10,12-trimethyl-16-[(propan-2-yl)oxy]-2,8,10,11,12,13-hexahydro-14H-5,3-(azenometheno)tripyrazolo[3,4-f:3′,4′-j:4″,3″-n][1,4]oxazacyclopentadecin-14-yl]ethan-1-ol] | 130 | 110 | 100 | 80 | 450 | 80 | 80 | 6400 | 3990 | 29200 | 33500 | 4880 | 990 |  |  |  |
| CCOc1nn(CCO)c2c1/C=C/c1n[nH]c3cnc(cc13)-c1cnn(C)c1O[C@H](C)CN(CC)C2 [Ex. 6, 2-[(10R,17E)-16-ethoxy-12-ethyl-8,10-dimethyl-2,8,10,11,12,13-hexahydro-14H-5,3-(azenometheno)tripyrazolo[3,4-f:3′,4′-j:4″,3″-n][1,4]oxazacyclopentadecin-14-yl]ethan-1-ol] | 160 | 150 | 120 | 90 | 490 | 70 | 130 | 6850 | 10900 | 42700 | 27600 | 28000 | 1980 |  |  |  |
| CCOc1nn([C@@H](C)CO)c2c1/C=C/c1n[nH]c3c(C)nc(cc13)-c1cnn(C)c1O[C@@H](C)CN(C)C2 [Ex. 45, (2S)-2-[(10S,17E)-16-ethoxy-8,10,12,20-tetramethyl-2,8,10,11,12,13-hexahydro-14H-5,3-(azenometheno)tripyrazolo[3,4-f:3′,4′-j:4″,3″-n][1,4]oxazacyclopentadecin-14-yl]propan-1-ol] |  |  | 530 | 280 | 950 | 690 |  | 2150 | 1240 | 12200 | 3310 | 1090 | 1120 | 470 | 120 | 1040 |
| CCOc1nn([C@@H](C)CO)c2c1/C=C/c1n[nH]c3cnc(cc13)-c1c(C)nn(C)c1O[C@@H](C)[C@H]1CCCN1C2 [Ex. 56, (2S)-2-[(8aR,9S,19E)-1-ethoxy-9,11,13-trimethyl-7,8,8a,9,11,17-hexahydro-6H-14,16-(azenometheno)tripyrazolo[3,4-f:3′,4′-j:4″,3″-n]pyrrolo[2,1-c][1,4]oxazacyclopentadecin-3(4H)-yl]propan-1-ol] |  |  | 980 | 450 | 1110 | 670 |  | 820 | 1260 | 8410 | 320 | 920 | 280 | 610 | 50 | 480 |
| CCOc1nn(CCO)c2c1/C=C/c1n[nH]c3cnc(cc13)-c1c(C)nn(C)c1OC[C@H]1CCCN1C2 [Ex. 39] |  |  | 500 | 320 | 850 | 480 |  | 2110 | 2180 | 22700 | 6570 | 26400 | 630 | 1870 | 270 | 6080 |
| CCOc1nn(CCO)c2c1/C=C/c1n[nH]c3cnc(cc13)-c1cnn(C)c1OC[C@H](C)N(CC)C2 [Ex. 7, 2-[(11S,17E)-16-ethoxy-12-ethyl-8,11-dimethyl-2,8,10,11,12,13-hexahydro-14H-5,3-(azenometheno)tripyrazolo[3,4-f:3′,4′-j:4″,3″-n][1,4]oxazacyclopentadecin-14-yl]ethan-1-ol] | 890 | 280 | 230 | 290 | 740 | 1090 | 1160 | 24300 | 14200 | 70900 | 59700 | 47400 | 5170 |  |  |  |
| CCOc1nn(CCO)c2c1/C=C/c1n[nH]c3cnc(cc13)-c1cnn(C)c1O[C@@H](C)CN(C1CC1)C2 [Ex. 30, 2-[(10S,17E)-12-cyclopropyl-16-ethoxy-8,10-dimethyl-2,8,10,11,12,13-hexahydro-14H-5,3-(azenometheno)tripyrazolo[3,4-f:3,4′-j:4″,3″-n][1,4]oxazacyclopentadecin-14-yl]ethan-1-ol] |  |  | 190 | 150 | 490 | 150 |  | 3640 | 3310 | 14000 | 4440 | 1960 | 500 | 1020 | 140 | 650 |
